In US20240408169A1 (priority 2023, published 2024):
*1 amine or outer side, *2 acyl side, *3 side chain or, on linkers, in order; H or OH if unused. Where a SMILES comes first, the peptide text is derived from it. Bridges are numbered along the chain shown (N, C = ends). [ ]: non-standard residue; d: D form. The star is where a group is joined. X120 = CN([C@@H](Cc1cc(Cl)ccc1-c1ccn(S(C)(=O)=O)c1)C(=O)[*:2])[*:1]; X141 = CN([C@@H](Cc1cc(Cl)ccc1C1=CCN(S(C)(=O)=O)C1)C(=O)[*:2])[*:1]; X130 = CN([C@@H](Cc1cc(F)ccc1-c1ccn(S(C)(=O)=O)c1)C(=O)[*:2])[*:1]; X137 = CN([C@@H](Cc1cc(F)ccc1-c1cnn(S(C)(=O)=O)c1)C(=O)[*:2])[*:1]; X187 = CC(=O)N1CC=C(c2ccc(Cl)cc2C[C@@H](C(=O)[*:2])N(C)[*:1])C1; X196 = CN([C@@H](Cc1cc(F)ccc1-c1cnn2ccncc12)C(=O)[*:2])[*:1]; NMehhhLys(Me) = CN([C@@H](CCCCCCCN(C)[*:3])C(=O)[*:2])[*:1]; NMe(hhhLys) = CN([C@@H](CCCCCCCN[*:3])C(=O)[*:2])[*:1]; Oxane2carbonyl(2R-CF3) = O=C([C@@]1(C(F)(F)F)CCCCO1)*; X152 = CN([C@@H](Cc1cc(Cl)ccc1OC1CC1)C(=O)[*:2])[*:1]; cBuCO(3,3-F2-1-CF3) = O=C(C1(C(F)(F)F)CC(F)(F)C1)*; Pro(trans-4-F) = O=C(O)[C@@H]1C[C@@H](F)CN1; Pivaloyl(3,3,3-F3) = CC(C)(C(=O)*)C(F)(F)F; Gly(cPr) = N[C@H](C(=O)O)C1CC1

Legend:
[1] = target: T1, CyclinA2/CDK2 (Homo sapiens, UniProt P20248); experiment: Fluorescence Polarization (FP) competitive binding assay, Cyclin A2/Cdk2; conditions: 8 nM Cyclin A2/Cdk2, 2 nM FAM probe; average of 2-3 independent experiments; read-out: Cyclin A FP IC50;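 also: plates equilibrated two hours at room temperature before polarization reading, IC50 fitted from eight-concentration compound titration curves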
T1 construct: purchased CRELUX Protein Services

[2] = target: T2, CyclinB1/CDK1 (Homo sapiens, UniProt P14635); experiment: Fluorescence Polarization (FP) competitive binding assay, Cyclin B1/Cdk1; conditions: 10 nM Cyclin B1/Cdk1, 2 nM FAM probe; average of 2-3 independent experiments; read-out: Cyclin B FP IC50;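 also: fluorescence polarization read after equilibration at room temperature, with IC50 taken from serially diluted dose-response curves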
T2 construct: purchased Eurofins, discovery 14-450

[3] = target: T3, CyclinE1/CDK2 (Homo sapiens, UniProt P24864); experiment: Fluorescence Polarization (FP) competitive binding assay, Cyclin E1/Cdk2; conditions: 10 nM Cyclin E1/Cdk2, 2 nM FAM probe; average of 2-3 independent experiments; read-out: Cyclin E FP IC50;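 also: readings taken after two-hour equilibration at room temperature in HEPES buffer with NaCl, DTT, NP-40 and BSA, IC50 fitted from eight-concentration serial dilution series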
T3 construct: purchased Eurofins, discovery 14-475

[4] = test system: NCI-H1048 cells; experiment: MTT proliferation assay, NCI-H1048; format: cell-based; conditions: 5 days compound exposure, 1:3 serial dilution starting at 10 μM;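 also: Dose-response in 96-well plates over 8 or 10 concentration points, with exposure spanning 3-4 cell doublings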
[5] = test system: OVCAR3 cells; experiment: MTT proliferation assay, OVCAR3; format: cell-based; conditions: 5 days compound exposure, 1:3 serial dilution starting at 10 μM;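 also: compound given as an 8- or 10-point series, one day after plating, with exposure covering roughly 3-4 cell doublings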

| Structure (SMILES) | IC50 [1] [nM] | IC50 [2] [nM] | IC50 [3] [nM] | GI50 [4] [nM] | GI50 [5] [nM] |
| --- | --- | --- | --- | --- | --- |
| CC(C)C[C@@H]1NC(=O)[C@@H](N(C)C(=O)[C@@H](NC(=O)[C@@H]2C[C@@H](F)CN2C(=O)[C@@]2(C(F)(F)F)CCCCO2)C2CC2)CCCCCCCN(C)C(=O)[C@H](Cc2cc(F)ccc2-c2cnn(S(C)(=O)=O)c2)N(C)C1=O [Example 303] ({Oxane2carbonyl(2R-CF3)}-[Pro(trans-4-F)][Gly(cPr)][NMehhhLys(Me)]L[X137]; lactam 3-C) | 30 | 20 | 100 | 10 | 10 |
| CC(C)C[C@@H]1NC(=O)[C@@H](N(C)C(=O)[C@@H](NC(=O)[C@@H]2C[C@@H](F)CN2C(=O)C(C)(C)C(F)(F)F)C2CC2)CCCCCCCN(C)C(=O)[C@H](Cc2cc(F)ccc2-c2cnn(S(C)(=O)=O)c2)N(C)C1=O [Example 304] ({Pivaloyl(3,3,3-F3)}-[Pro(trans-4-F)][Gly(cPr)][NMehhhLys(Me)]L[X137]; lactam 3-C) | 40 | 20 | 190 | 10 | 10 |
| CC(C)C[C@@H]1NC(=O)[C@@H](N(C)C(=O)[C@@H](NC(=O)[C@@H]2C[C@@H](F)CN2C(=O)C2(C(F)(F)F)CC(F)(F)C2)C2CC2)CCCCCCCN(C)C(=O)[C@H](Cc2cc(F)ccc2-c2ccn(S(C)(=O)=O)c2)N(C)C1=O [Example 306] ({cBuCO(3,3-F2-1-CF3)}-[Pro(trans-4-F)][Gly(cPr)][NMehhhLys(Me)]L[X130]; lactam 3-C) | 20 | 20 | 200 | 10 | 10 |
| CC(C)C[C@@H]1NC(=O)[C@@H](N(C)C(=O)[C@@H](NC(=O)[C@@H]2C[C@@H](F)CN2C(=O)C2(C(F)(F)F)CC(F)(F)C2)C2CC2)CCCCCCCN(C)C(=O)[C@H](Cc2cc(Cl)ccc2-c2ccn(S(C)(=O)=O)c2)N(C)C1=O [Example 307] ({cBuCO(3,3-F2-1-CF3)}-[Pro(trans-4-F)][Gly(cPr)][NMehhhLys(Me)]L[X120]; lactam 3-C) | 20 | 20 | 440 | 10 | 10 |
| CC(=O)N1CC=C(c2ccc(Cl)cc2C[C@H]2C(=O)N(C)CCCCCCC[C@H](N(C)C(=O)[C@@H](NC(=O)[C@@H]3C[C@@H](F)CN3C(=O)C3(C(F)(F)F)CC(F)(F)C3)C3CC3)C(=O)N[C@@H](CC(C)C)C(=O)N2C)C1 [Example 308] ({cBuCO(3,3-F2-1-CF3)}-[Pro(trans-4-F)][Gly(cPr)][NMehhhLys(Me)]L[X187]; lactam 3-C) | 20 | 20 | 840 | 10 | 10 |
| CC(C)C[C@@H]1NC(=O)[C@@H](N(C)C(=O)[C@@H](NC(=O)[C@@H]2C[C@@H](F)CN2C(=O)C2(C(F)(F)F)CC(F)(F)C2)C2CC2)CCCCCCCN(C)C(=O)[C@H](Cc2cc(Cl)ccc2C2=CCN(S(C)(=O)=O)C2)N(C)C1=O [Example 309] ({cBuCO(3,3-F2-1-CF3)}-[Pro(trans-4-F)][Gly(cPr)][NMehhhLys(Me)]L[X141]; lactam 3-C) | 20 | 20 | 930 | 10 | 10 |
| CC(C)C[C@@H]1NC(=O)[C@@H](N(C)C(=O)[C@@H](NC(=O)[C@@H]2C[C@@H](F)CN2C(=O)C2(C(F)(F)F)CC(F)(F)C2)C2CC2)CCCCCCCN(C)C(=O)[C@H](Cc2cc(F)ccc2-c2cnn3ccncc23)N(C)C1=O [Example 310] ({cBuCO(3,3-F2-1-CF3)}-[Pro(trans-4-F)][Gly(cPr)][NMehhhLys(Me)]L[X196]; lactam 3-C) | 80 | 20 | 990 | 10 | 10 |
| CC(C)C[C@@H]1NC(=O)[C@@H](N(C)C(=O)[C@@H](NC(=O)[C@@H]2C[C@@H](F)CN2C(=O)C2(C(F)(F)F)CC(F)(F)C2)C2CC2)CCCCCCCNC(=O)[C@H](Cc2cc(Cl)ccc2OC2CC2)N(C)C1=O [Example 311] ({cBuCO(3,3-F2-1-CF3)}-[Pro(trans-4-F)][Gly(cPr)][NMe(hhhLys)]L[X152]; lactam 3-C) | 50 | 20 | 200 | 20 | 30 |
